Data from patent publication US20240382499A1, “INDUCERS OF SENESCENCE, IN COMBINATION WITH A SELECTIVE DEATH RECEPTOR 5 (DR5) AGONIST, FOR USE IN A METHOD OF TREATING CANCER” (Stichting Het Nederlands Kanker Instituut-Antoni van …, priority 2021, published 2024).

Legend:
PC9, Hep1 and A549 = details: 0.5 microgram/ml conatumumab
Description: FIG. 7: (A) Cell viability for the BRD2 inhibitor iBET in the presence of 0.5 microgram/ml conatumumab. […] Cells were seeded into 384 well plates. Drugs were added after 24 hours. Cell viability was measured using cell titer blue after 96 hours of drug treatment.

A549 lung cancer cells = experiment: Tumor growth of A549 xenografts in Balb/c nude mice; type: in vivo; details: A549 xenograft; 30 mg/kg alisertib oral gavage, 10 μg conatumumab intraperitoneal, week days
Description: (§1) FIG. 4: (A) Tumor growth of Hep1 parental cells in the flanks of Balb/c nude mice subcutaneously injected with 1*10^7 cells. When tumors reached approximately 200 mm^3, assigned to either control, 30 mg/kg alisertib (oral gavage), 5 μg conatumumab (intraperitoneal injection) and the combination. The drugs were administrated during week days and suspended during the weekend. (B) Tumor growth of A549 parental cells in the flanks of Balb/c nude mice subcutaneously injected with 5*10^6 cells. When tumors reached approximately 200 mm3, assigned to either control, 30 mg/kg alisertib (oral gavage), 10 μg conatumumab (intraperitoneal injection) and the combination. The drugs were administrated during week days and suspended during the weekend. (C-E) Cell viability was assessed by colony formation assay in the A549 and Hep1 cells. The cells were firstly treated with different senescence inducers for 7 days to induce senescence. Afterwards, the senescent cells were suspended from the senescence inducers then re-seeded in a 12-well plate and switched to conatumumab or Lz-TRAIL treatment for 5 days. Proliferating cells were taken as a control. At the end of assay, cells were fixed, stained, and photographed.
(§2) To test the treatment in vivo, we engrafted Hep1 liver cancer cells and A549 lung cancer cells into immunodeficient nude mice. […]

[1] = system: Alisertib induced senescent and proliferating A549, H2030, H358, HCT116, MDA-MB-231 and MCF-7 cells; experiment: Viability of alisertib-induced senescent versus proliferating cancer cell line panel (CellTiter-Blue dose response, Incucyte, colony formation); type: cell-based
Description: FIG. 2: (A) Western blot analysis of DR4, DR5, cFLIP in A549 cells treated with different senescence inducers for 1 week. VINC served as loading control. (B) A549 cells were firstly treated with 0.5 μM alisertib for 7 days to induce senescence. Afterwards, the senescent cells were suspended from alisertib, re-seeded in a 96-well plate then switched to 200 ng/ml recombinant Lz-TRAIL. The growth curves were measured by Incucyte cell proliferation assay. (C) Alisertib induced senescent and proliferating A549, H2030, H358, HCT116, MDA-MB-231 and MCF-7 cells were seeded into a 384-well plate and treated with Lz-TRAIL for 120 hrs. Cell viability were measured using CellTiter-Blue to generate dose response curve. (D) Senescence associated beta-galactosidase (SA-β-gal) staining in a cell line panel after treated with 0.5 μM alisertib for one week. (E) Cell viability […] was assessed by colony formation assay in the cell line panel. The cells were firstly treated with 0.5 μM alisertib for 7 days to induce senescence. […]
FIG. 3: (A) Human NF-kB pathway protein array analysis on the senescent A549 cells generated with 0.5 μM alisertib for 7 days. […] (C) Cell viability was assessed by colony formation assay in the A549 cells lentiviral shRNAs against DR4 or DR5. […] Cell viability were measured using CellTiter-Blue to generate dose response curve.

[2] = system: senescent A549 and Hep1 cells; experiment: Colony formation of A549 and Hep1 cells made senescent with other senescence inducers; type: cell-based; details: A549 and Hep1 made senescent with PLk4 inhibitor, etoposide and barasertib; treatment 5 days
Description: as §1

Hep1 liver cancer cells = experiment: Tumor growth of Hep1 xenografts in Balb/c nude mice; type: in vivo; details: Hep1 xenograft; 30 mg/kg alisertib oral gavage, 5 μg conatumumab intraperitoneal, week days
Description: as §1, §2

[3] = system: proliferating and senescent A549 and Hep1 cells; experiment: Colony formation of proliferating and therapy-induced senescent A549 and Hep1 cells with NEO2734 and conatumumab; type: cell-based
Description: FIG. 8: Cell viability was assessed by colony formation assay using low doses of NEO2734 and conatumab. (A) Cell viability was assessed by a colony formation assay using low dose 0.25 μM of NEO2734 and 0.125 μg/ml conatumumab on Hep1 cells made senescent by one-week treatment of 0.5 μM alisertib, 1 μM barasertib, 50 nM CFI-400945 or 2 μM Etoposide. (B) Colony formation using low dose 0.25 μM of NEO2734 and 0.125 μg/ml conatumumab on Hep1, 0.25 μM of NEO2734 and 1 μg/ml conatumumab on A549 cells made senescent by one-week treatment of different senescence inducers (0.5 μM PF-06873600, 100 nM doxorubicin, 1 μM TAS-119 or combination of 5 nM trametinib plus 0.5 μM palbociclib.
Cells were treated with 0.5 μM alisertib for 7 days to induce senescence. These cells were seeded into 12 well plates. After 24 hours, the cells were treated with 0.5 μM NEO 2734 and indicated doses of conatumumab for 96 hours. Cells were fixed with 4% paraformaldehyde after 96 hours of drug treatment. The plates were stained with 2 mL 0.5% (w/v) crystal violet in H2O and photographed. Further, colony formation was investigated using 0.25 μM of NEO2734 and 0.125 μg/ml conatumumab on Hep1 cells made senescent by one-week treatment of 0.5 μM alisertib, 1 μM barasertib, 50 nM CFI-400945 or 2 μM Etoposide. Furthermore, colony formation was investigated using 0.25 μM of NEO2734 and 1 μg/ml conatumumab on A549 cells made senescent by one-week treatment of different senescence inducers, namely 0.5 μM PF-06873600, 100 nM doxorubicin or combination of 5 nM trametinib plus 0.5 μM palbociclib. Doxorubicin, PF-06873600, palbociclib and trametinib were purchased from Selleckchem (Houston, TX, USA).

senescent cells = experiment: Killing of senescent cells by conatumumab in vitro, time; type: cell-based
TNFRSF10B (DR5), DR4 = experiment: RNA sequencing of a senescent cell line panel, death receptor expression; type: cell-based; details: data not shown
Description: RNA sequencing was performed on A549 cells treated with 0.5 alisertib μM for 1 week, and followed by gene set enrichment analysis (GSEA) of alisertib treated cells versus untreated control for multiple independent NF-KB signaling gene sets. (B) Real-time PCR analysis of DR4, DR5, cFLIP, TRAIL in A549 cells treated with 0.5 μM alisertib, 100 nM CFI-400945 and 2 μM Etoposide. GAPDH served as control.

[4] = system: PC9, TFK, EGI and Hep 1 cancer cells, and BJ and Rpe1 primary cells; experiment: Dose-response curves (cell titer blue) for NEO2734 in the presence of conatumumab; type: cell-based, human; details: 0.5 microgram/ml conatumumab, 96 hours
Description: FIG. 6: (A) Dose-response curves determined by cell viability using cell titer blue for NEO2734 in the presence of 0.5 microgram/ml conatumumab. Shown are dose response curves for PC9, TFK, EGI and Hep 1 cancer cells, and BJ and Rpe1 primary cells. (B) RNA sequencing results.
PC9 human lung cancer cells, Panc1 human pancreatic cancer cell line of ductal cell origin, Hep3B human epithelial hepatoma cells, H1975 human epithelial lung cancer cells, TFK bile duct cancer cells, EGI bile duct cancer cells, BJ human foreskin fibroblast cells and Rpe1 human retina pigmented epithelial cells were obtained from ATCC.
Cells were seeded into 384 well plates. Drugs were added after 24 hours.
To validate this finding, a BRD2 inhibitor, NEO2734, was used to combine with a DR5 activation antibody (conatumumab) and to test the combination in multiple cancer models, including a pancreatic cancer line of ductal cell origin Panc1, two epithelial hepatoma cell lines Hep3B and Hep1, two bile duct cancer cell lines TFK and EGI, two epithelial cancer lines PC9 and H1975. In addition, two primary cell lines BJ and Rpe1 were used to determine whether this drug combination would be less harmful to healthy cells.

cFLIP (CFLAR) = experiment: RNA sequencing of NEO2734 treated cells; type: cell-based; details: 0.5 μM NEO2734 for 1 week; PC9, TFK, EGI and Hep1
Description: RNA sequencing was performed on PC9, Hep1, EGI and TFK cells treated with 0.5 μM NEO2734 for 1 week. The expression changes of cFLIP and TNFRSF10B (DR5) were plotted.
To investigate the mechanism of this synergy effect from this drug combination, RNA sequencing was performed on NEO2734 treated cells (using four independent cell models PC9, TFK, EGI and Hep1) to identify genes that might be critical for the DR5 signaling pathway. […] This might explain why BRD2 inhibition may enhance the responsiveness of conatumumab.

## iBET
PC9, Hep1 and A549
  effect on conatumumab responsiveness (cell viability): efficiently enhance the responsiveness of conatumumab

## conatumumab: DR5 agonistic IgG1 antibody; purchased from Creative Biolabs, or generated by expression of SEQ 1 and SEQ 3
A549 lung cancer cells
  tumor growth: limited tumor growth inhibition
[1]; alisertib 0.5 μM 7 days induced senescence, treatment 120 hrs, lung, breast, colon and liver cancer models
  killing of senescent versus proliferating cells (cell viability): selective killing of senescent cells
[2]
  senolytic effect (colony formation): strong senolytic effect
Hep1 liver cancer cells
  tumor growth: limited tumor growth inhibition
[3]; A549, titration
  dosage that will not lead to a significant impact on alisertib induced senescent cells: 1 µg/mL
[3]; Hep1, titration
  dosage that will not lead to a significant impact on alisertib induced senescent cells: 0.125 µg/mL
Senescent cells
  time in which senescent cells are killed: 24 h

## COc1cc(Nc2ncc3c(n2)-c2ccc(Cl)cc2C(c2c(F)cccc2OC)=NC3)ccc1C(=O)O [alisertib, 4-[[9-chloro-7-(2-fluoro-6-methoxyphenyl)-5H-pyrimido[5,4-d][2]benzazepin-2-yl]amino]-2-methoxybenzoic acid]
A549 lung cancer cells
  tumor growth: limited tumor growth inhibition
TNFRSF10B (DR5), DR4
  DR4 expression in induced senescent cells: not DR4
  TNFRSF10B (DR5) expression in induced senescent cells: upregulated
Hep1 liver cancer cells
  tumor growth: limited tumor growth inhibition

## CC1(C)CCC(c2ccc(Cl)cc2)=C(CN2CCN(c3ccc(C(=O)NS(=O)(=O)c4ccc(N[C@H](CCN5CCOCC5)CSc5ccccc5)c(S(=O)(=O)C(F)(F)F)c4)cc3)CC2)C1 [ABT-263]
[1]; alisertib-induced senescent cells, 12-well plate
  senolytic effect in cell line panel (colony formation), TRAIL compared with ABT-263: resistant

## Cc1cc(-c2ccc3nc(C4CCOCC4)n(CCOC(F)(F)F)c3c2)cn(C)c1=O [NEO2734, 1,3-dimethyl-5-[2-(oxan-4-yl)-3-[2-(trifluoromethoxy)ethyl]benzimidazol-5-yl]pyridin-2-one]
[4]; BJ and Rpe1 primary cells
  effect on conatumumab responsiveness in primary cells (cell viability): not in primary cells
[4]; cancer cells
  effect on conatumumab responsiveness in cancer cells (cell viability): enhance the conatumumab responsiveness
[3]; alisertib-induced senescent and proliferating A549 (1 μg/ml conatumumab) and Hep1 (0.125 μg/ml conatumumab)
  effect on senolytic effect of DR5 activation (colony formation): improve the senolytic effect of DR5 activation
cFLIP (CFLAR)
  cFLIP (CFLAR) expression change: highly down-regulated

## COc1cc([C@@H]2c3cc4c(cc3[C@@H](O[C@@H]3O[C@@H]5CO[C@@H](C)O[C@H]5[C@H](O)[C@H]3O)[C@H]3COC(=O)[C@H]23)OCO4)cc(OC)c1O [etoposide, (5S,5aR,8aR,9R)-5-[[(2R,4aR,6R,7R,8R,8aS)-7,8-dihydroxy-2-methyl-4,4a,6,7,8,8a-hexahydropyrano[3,2-d][1,3]dioxin-6-yl]oxy]-9-(4-hydroxy-3,5-dimethoxyphenyl)-5a,6,8a,9-tetrahydro-5H-[2]benzofuro[6,5-f][1,3]benzodioxol-8-one]
TNFRSF10B (DR5), DR4
  DR4 expression in induced senescent cells: not DR4
  TNFRSF10B (DR5) expression in induced senescent cells: upregulated
